These results are taken from US4473497A, “Pharmacologically active peptides” (Eli Lilly and Company, priority 1983, dated 1984).

For assay [1], the system named is mouse (Harlan ND4). Put plainly: mouse hot plate test (Mouse Jump test). The assay is classed as in vivo. Conditions: subcutaneous injection, 15 minutes after administration, hot plate 55° C., latency to jump. The protocol:
In the mouse hot plate test, an upright acrylic cylinder comprising, as its base, a hot plate surface which is maintained at 55° C. is used. A mouse (Harlan ND4) is given, by subcutaneous injection, a predetermined amount of test compound dissolved or suspended in a suitable carrier, and, 15 minutes after administration of the test compound, the mouse is placed on the hot plate surface. The latency in seconds until the mouse jumps from the hot plate surface is measured. […] This must occur in a dose range which produces no motor incoordination or incapacitation. The following Table records ED50 results obtained from this test. By the term "ED50 " is meant that dose which produces analgesia in 50% of the mice tested. Analgesia is defined as a response latency in the presence of test compound that is equal to or greater than the control response latency plus two standard deviations. The percent analgesia data are converted to probits, and the ED50 is calculated by regression analysis of the dose-response data. Each dose response curve must have at least four points, and each point is determined using data from a minimum of ten treated mice and ten control mice.
For orientation: Hot-plate and tail-flick tests time the reaction to a heat stimulus.

Assay [2] deals with Cox Standard albino mice. Description: mouse writhing test (acetic acid induced). The following applies: 0.6% acetic acid i.p. The class given is in vivo. As for the experimental part: In the mouse writhing test, a writhing response is defined as a contraction of the abdominal musculature followed by extension of the hind limbs. Acetic acid administered intraperitoneally (10 ml./kg.) at a concentration of 0.6% was used to induce a writhing response. Five Cox Standard albino mice weighing 20-22 g. after being fasted overnight were observed simultaneously for the writhing response. Each mouse was used only once. The observation period was ten minutes and started five minutes following administration of the acetic acid. Inhibition of mouse writhing was calculated from the total number of writhes in the control and test compound-treated groups according to the following formula: [formula]
The dose required to reduce the frequency of writhing by 50% is defined as the ED50 and is calculated by "The Use of Regression Line in Reverse", [Brownlee, K. A., Statistical Theory and Methodology in Science and Engineering, 2nd Ed., New York, John Wiley and Sons (1965)].
A general note: An intraperitoneal irritant provokes the stretching counted in writhing tests.

Take “L-(N-Methyl)tyrosyl-D-alanylglycine, [N-ethyl-N-(1-benzyl-2-dimethyloxidoamino)ethyl] amide, Diacetate Salt”: the “ED50 in the Mouse Jump test (dose which produces analgesia in 50% of the mice)” value in assay [1] stood at 0.0025 mg/kg. The results for the “ED50 in the Mouse Writhing test (dose reducing frequency of writhing by 50%)” value in assay [2] (oral administration) and in assay [2] (subcutaneous administration) were 5.6 mg/kg and 0.1 mg/kg, respectively.
